According to US20230286969A1, “AROMATIC SPIRO RING AMIDE DERIVATIVES FOR THE TREATMENT AND PROPHYLAXIS OF HEPATITIS B VIRUS INFECTION” (Hoffmann-La Roche Inc., priority 2020, published 2023):
Like-named read-outs stand apart in the source and are kept apart here.

Assays:
Format in all cases: cell-based
[1] = PHH natural infection assay, cytotoxicity (Cell Counting Kit-8); details: human, HBV-infected primary human hepatocytes, CCK8, end of treatment
Method in brief: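 HBV-infected at 200 GE/cell with 4% PEG8000 for 24 h, then sandwich-cultured 72 h in 1% DMSO and 0.25 mg/mL matrix gel. Compound added twice at 72-h intervals; supernatant HBsAg and HBeAg read by AlphaLISA, HBV DNA by quantitative fluorescence PCR kit. Cytotoxicity by CCK-8.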

HBsAg = test: PHH HBV natural infection assay, HBsAg (alphalisa)
Method in brief: (§1)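 Primary human hepatocytes infected with HBV at 200 GE/cell plus 4% PEG8000 for 24 h, then sandwich-cultured 72 h. Compounds were added in two refreshes 72 h apart. HBsAg and HBeAg in supernatant measured by AlphaLISA.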

HBeAg = test: PHH HBV natural infection assay, HBeAg (alphalisa)
Method in brief: as §1

[2] = Hepatitis B virus, Hepatocyte, 72 h, read-out: HBsAg IC50, HBV-infected primary human hepatocytes, supernatant, compound medium refreshed two times with 72-hour interval
[3] = Hepatitis B virus, Hepatocyte, 72 h, read-out: HbeAg IC50, HBV-infected primary human hepatocytes, supernatant, compound medium refreshed two times with 72-hour interval

Work on `CCS(=O)(=O)c1ccc(C(=O)NC2CC3(C2)CC(c2nc4cc(Cl)ccc4o2)C3)o1` (stereo not drawn) [Example 16, N-[6-(5-chloro-1,3-benzoxazol-2-yl)spiro[3.3]heptan-2-yl]-5-ethylsulfonyl-furan-2-carboxamide] yielded a CC50 at 144 h [1] of 74000 nM, an IC50 (HBsAg; [2]) of 1530 nM and an IC50 (HBeAg; [3]) of 1030 nM.

For `COC(=O)CCC(=O)NS(=O)(=O)c1ccc(C(=O)N[C@H]2CC3(C2)C[C@H](c2nc4cc(Cl)ccc4o2)C3)o1` (single isomer, unassigned) [Example 75, (Sa)-methyl 4-[[5-[[6-(5-chloro-1,3-benzoxazol-2-yl)spiro[3.3]heptan-2-yl]carbamoyl]-2-furyl]sulfonylamino]-4-oxo-butanoate, or (Ra)-methyl 4-[[5-[[6-(5-chloro-1,3-benzoxazol-2-yl)spiro[3.3]heptan-2-yl]carbamoyl]-2-furyl]sulfonylamino]-4-oxo-butanoate], the CC50 at 144 h [1] was > 10000 nM, the IC50 (HBsAg; [2]) was 2490 nM and the IC50 (HBeAg; [3]) was 1690 nM.

Work on `O=C(NC1CC2(C1)CC(c1nc3cc(Cl)ccc3o1)C2)c1ccc(C(F)(F)F)o1` (stereo not drawn) [Example 1, N-[6-(5-chloro-1,3-benzoxazol-2-yl)spiro[3.3]heptan-2-yl]-5-(trifluoromethyl)furan-2-carboxamide] yielded a CC50 at 144 h [1] of 96800 nM, an IC50 (HBsAg; [2]) of 3630 nM and an IC50 (HBeAg; [3]) of 2290 nM.

With `CS(=O)(=O)CCc1ccc(C(=O)NC2CC3(C2)CC(c2nc4cc(Cl)ccc4o2)C3)o1` (stereo not drawn) [Example 32, N-[6-(5-chloro-1,3-benzoxazol-2-yl)spiro[3.3]heptan-2-yl]-5-(2-methylsulfonylethyl)furan-2-carboxamide] the CC50 at 144 h [1] was > 100000 nM, the IC50 (HBsAg; [2]) was 4940 nM and the IC50 (HBeAg; [3]) was 3150 nM.

`CC(C)C[S+]([O-])c1ccc(C(=O)NC2CC3(C2)CC(c2nc4cc(Cl)ccc4o2)C3)o1` (stereo not drawn) [Example 21, N-[6-(5-chloro-1,3-benzoxazol-2-yl)spiro[3.3]heptan-2-yl]-5-isobutylsulfinyl-furan-2-carboxamide] showed a CC50 at 144 h [1] of 92400 nM, an IC50 (HBsAg; [2]) of 372 nM and an IC50 (HBeAg; [3]) of 314 nM.

In the case of `O=C(NC1CC2(C1)CC(c1nc3cc(Cl)ccc3o1)C2)c1ccc(S2(=O)=NCCC2)o1` (stereo not drawn) [Example 61, N-[6-(5-chloro-1,3-benzoxazol-2-yl)spiro[3.3]heptan-2-yl]-5-(1-oxo-4,5-dihydro-3H-isothiazol-1-yl)furan-2-carboxamide], the CC50 at 144 h [1] is reported as > 100000 nM, the IC50 (HBsAg; [2]) is reported as 3650 nM and the IC50 (HBeAg; [3]) is reported as 3140 nM.

For `O=C(NC1CC2(C1)CC(c1nc3cc(Cl)ccc3o1)C2)c1ccc([S+]([O-])C2CC2)o1` (stereo not drawn) [Example 40, N-[6-(5-chloro-1,3-benzoxazol-2-yl)spiro[3.3]heptan-2-yl]-5-cyclopropylsulfinyl-furan-2-carboxamide], the CC50 at 144 h [1] was > 10000 nM, the IC50 (HBsAg; [2]) was 84 nM and the IC50 (HBeAg; [3]) was 67 nM.

For `CC(=O)NS(=O)(=O)c1ccc(C(=O)NC2CC3(C2)CC(c2nc4cc(Cl)ccc4o2)C3)o1` (stereo not drawn) [Example 80, 5-(acetylsulfamoyl)-N-[6-(5-chloro-1,3-benzoxazol-2-yl)spiro[3.3]heptan-2-yl]furan-2-carboxamide], the CC50 at 144 h [1] was > 100000 nM, the IC50 (HBsAg; [2]) was 2770 nM and the IC50 (HBeAg; [3]) was 1800 nM.

In the case of `CCS(=O)(=O)c1oc(C(=O)NC2CC3(C2)CC(c2nc4cc(Cl)ccc4o2)C3)cc1Br` (stereo not drawn) [Example 36, 4-bromo-N-[6-(5-chloro-1,3-benzoxazol-2-yl)spiro[3.3]heptan-2-yl]-5-ethylsulfonyl-furan-2-carboxamide], the CC50 at 144 h [1] is reported as > 100000 nM, the IC50 (HBsAg; [2]) is reported as 885 nM and the IC50 (HBeAg; [3]) is reported as 815 nM.

Molecule `O=C(NC1CC2(C1)CC(c1nc3cc(Cl)ccc3o1)C2)c1ccc(S(=O)(=O)C2COC2)o1` (stereo not drawn) [Example 18, N-[6-(5-chloro-1,3-benzoxazol-2-yl)spiro[3.3]heptan-2-yl]-5-(oxetan-3-ylsulfonyl)furan-2-carboxamide] has a CC50 at 144 h [1] of 72100 nM, an IC50 (HBsAg; [2]) of 3270 nM and an IC50 (HBeAg; [3]) of 1810 nM.

`O=C(NC1CC2(C1)CC(c1nc3cc(Cl)ccc3o1)C2)c1ccc([S+]([O-])C(F)(F)F)o1` (stereo not drawn) [Example 42, N-[6-(5-chloro-1,3-benzoxazol-2-yl)spiro[3.3]heptan-2-yl]-5-(trifluoromethylsulfinyl)furan-2-carboxamide] gave a CC50 at 144 h [1] of 96200 nM, an IC50 (HBsAg; [2]) of 1520 nM and an IC50 (HBeAg; [3]) of 1410 nM.

Work on `CC(C)CS(=N)(=O)c1ccc(C(=O)NC2CC3(C2)CC(c2nc4cc(Cl)ccc4o2)C3)o1` (stereo not drawn) [Example 55, N-[6-(5-chloro-1,3-benzoxazol-2-yl)spiro[3.3]heptan-2-yl]-5-(isobutylsulfonimidoyl)furan-2-carboxamide] yielded a CC50 at 144 h [1] of 83300 nM, an IC50 (HBsAg; [2]) of 802 nM and an IC50 (HBeAg; [3]) of 988 nM.

In the case of `N=S(=O)(c1ccc(C(=O)NC2CC3(C2)CC(c2nc4cc(Cl)ccc4o2)C3)o1)C1CC1` (stereo not drawn) [Example 53, N-[6-(5-chloro-1,3-benzoxazol-2-yl)spiro[3.3]heptan-2-yl]-5-(cyclopropylsulfonimidoyl)furan-2-carboxamide], the CC50 at 144 h [1] is reported as > 10000 nM, the IC50 (HBsAg; [2]) is reported as 494 nM and the IC50 (HBeAg; [3]) is reported as 394 nM.

With `O=C(NC1CC2(C1)CC(c1nc3cc(Cl)ccc3o1)C2)c1ccc(S(=O)(=O)C2CC2)o1` (stereo not drawn) [Example 17, N-[6-(5-chloro-1,3-benzoxazol-2-yl)spiro[3.3]heptan-2-yl]-5-cyclopropylsulfonyl-furan-2-carboxamide] the CC50 at 144 h [1] was 89900 nM, the IC50 (HBsAg; [2]) was 275 nM and the IC50 (HBeAg; [3]) was 177 nM.

With `O=C(NC1CC2(C1)CC(c1nc3cc(Cl)ccc3o1)C2)c1ccc(Cl)o1` (stereo not drawn) [Example 6, 5-chloro-N-[6-(5-chloro-1,3-benzoxazol-2-yl)spiro[3.3]heptan-2-yl]furan-2-carboxamide] the CC50 at 144 h [1] was > 100000 nM, the IC50 (HBsAg; [2]) was 2770 nM and the IC50 (HBeAg; [3]) was 2080 nM.

Molecule `COCCS(=O)(=O)c1ccc(C(=O)NC2CC3(C2)CC(c2nc4cc(Cl)ccc4o2)C3)o1` (stereo not drawn) [Example 28, N-[6-(5-chloro-1,3-benzoxazol-2-yl)spiro[3.3]heptan-2-yl]-5-(2-methoxyethylsulfonyl)furan-2-carboxamide] has a CC50 at 144 h [1] of 94200 nM, an IC50 (HBsAg; [2]) of 758 nM and an IC50 (HBeAg; [3]) of 509 nM.

For `O=C(NC1CC2(C1)CC(c1nc3cc(Cl)ccc3o1)C2)c1ccc([S+]([O-])CC2CC2)o1` (single isomer, unassigned) [Example 19-a, N-[6-(5-chloro-1,3-benzoxazol-2-yl)spiro[3.3]heptan-2-yl]-5-(cyclopropylmethylsulfinyl)furan-2-carboxamide], the CC50 at 144 h [1] was > 10000 nM, the IC50 (HBsAg; read-out: HBsAg IC50, HBV-infected primary human hepatocytes, supernatant, compound medium refreshed two times with 72-hour interval) was 88 nM and the IC50 (HBeAg; read-out: HbeAg IC50, HBV-infected primary human hepatocytes, supernatant, compound medium refreshed two times with 72-hour interval) was 67 nM.

In the case of `COCCOCCOCC(=O)NS(=O)(=O)c1ccc(C(=O)N[C@H]2CC3(C2)C[C@H](c2nc4cc(Cl)ccc4o2)C3)o1` (single isomer, unassigned) [Example 79, (Sa)—N-[6-(5-chloro-1,3-benzoxazol-2-yl)spiro[3.3]heptan-2-yl]-5-[[2-[2-(2-methoxyethoxy)ethoxy]acetyl]sulfamoyl]furan-2-carboxamide, or (Ra)—N-[6-(5-chloro-1,3-benzoxazol-2-yl)spiro[3.3]heptan-2-yl]-5-[[2-[2-(2-methoxyethoxy)ethoxy]acetyl]sulfamoyl]furan-2-carboxamide], the CC50 at 144 h [1] is reported as > 10000 nM, the IC50 (HBsAg; [2]) is reported as 6130 nM and the IC50 (HBeAg; [3]) is reported as 4650 nM.

In the case of `O=C(NC1CC2(C1)CC(c1nc3cc(Cl)ccc3o1)C2)c1ccc(CS(=O)(=O)C2CC2)o1` (stereo not drawn) [Example 31, N-[6-(5-chloro-1,3-benzoxazol-2-yl)spiro[3.3]heptan-2-yl]-5-(cyclopropylsulfonylmethyl)furan-2-carboxamide], the CC50 at 144 h [1] is reported as > 100000 nM, the IC50 (HBsAg; [2]) is reported as 7560 nM and the IC50 (HBeAg; [3]) is reported as 6980 nM.
